Laboratory results published in ChEMBL document CHEMBL1154851, “Synthesis, antibacterial and antifungal activities of 6,5 fused steroidal oxazoles in cholestane series” (2010).
≈ marks a conversion by molar mass, not a printed value.

Key:
Pseudomonas aeruginosa [1] = assay: Antimicrobial activity against Pseudomonas aeruginosa after 18 hrs by disk diffusion method; assay type: functional
Bacillus subtilis [2] = assay: Antimicrobial activity against Bacillus subtilis after 18 hrs by macrodilution test; assay type: functional
Staphylococcus aureus [3] = assay: Antimicrobial activity against Staphylococcus aureus after 18 hrs by macrodilution test; assay type: functional
Streptococcus pyogenes [4] = assay: Antimicrobial activity against Streptococcus pyogenes after 18 hrs by macrodilution test; assay type: functional
Escherichia coli [5] = assay: Antimicrobial activity against Escherichia coli after 18 hrs by macrodilution test; assay type: functional
Salmonella enterica [6] = assay: Antimicrobial activity against Salmonella Typhimurium after 18 hrs by macrodilution test; assay type: functional, Salmonella enterica subsp. enterica serovar Typhimurium
Salmonella enterica [7] = assay: Antimicrobial activity against Salmonella Typhimurium after 18 hrs by disk diffusion method; assay type: functional, Salmonella enterica subsp. enterica serovar Typhimurium
Escherichia coli [8] = assay: Antimicrobial activity against Escherichia coli after 18 hrs by disk diffusion method; assay type: functional
Staphylococcus aureus [9] = assay: Antimicrobial activity against Staphylococcus aureus after 18 hrs by disk diffusion method; assay type: functional
Streptococcus pyogenes [10] = assay: Antimicrobial activity against Streptococcus pyogenes after 18 hrs by disk diffusion method; assay type: functional
Pseudomonas aeruginosa [11] = assay: Antimicrobial activity against Pseudomonas aeruginosa after 18 hrs by macrodilution test; assay type: functional
Bacillus subtilis [12] = assay: Antimicrobial activity against Bacillus subtilis after 18 hrs by disk diffusion method; assay type: functional
Fusarium oxysporum [13] = assay: Antimicrobial activity against Fusarium oxysporum at 30 ug after 48 hrs by disk diffusion method; assay type: functional, organism-based
Penicillium [14] = assay: Antimicrobial activity against Penicillium at 30 ug after 48 hrs by disk diffusion method; assay type: functional, organism-based
Nakaseomyces glabratus [15] = assay: Antimicrobial activity against Candida glabrata at 30 ug after 48 hrs by disk diffusion method; assay type: functional, organism-based
Candida albicans [16] = assay: Antimicrobial activity against Candida albicans at 30 ug after 48 hrs by disk diffusion method; assay type: functional, organism-based
Aspergillus niger [17] = assay: Antimicrobial activity against Aspergillus niger at 30 ug after 48 hrs by disk diffusion method; assay type: functional, organism-based
Nakaseomyces glabratus [18] = assay: Antimicrobial activity against Candida glabrata at 100 ug/ml after 48 hrs by disk diffusion method; assay type: functional; settings: read-out: DIZ
Candida albicans [19] = assay: Antimicrobial activity against Candida albicans at 100 ug/ml after 48 hrs by disk diffusion method; assay type: functional; settings: read-out: DIZ
Penicillium [20] = assay: Antimicrobial activity against Penicillium at 100 ug/ml after 48 hrs by disk diffusion method; assay type: functional; settings: read-out: DIZ
Fusarium oxysporum [21] = assay: Antimicrobial activity against Fusarium oxysporum at 100 ug/ml after 48 hrs by disk diffusion method; assay type: functional; settings: read-out: DIZ
Aspergillus niger [22] = assay: Antimicrobial activity against Aspergillus niger at 100 ug/ml after 48 hrs by disk diffusion method; assay type: functional; settings: read-out: DIZ

Molecule | inhibition zone (IZ) (Pseudomonas aeruginosa [1]) | MIC (Bacillus subtilis [2]) | MIC (Staphylococcus aureus [3]) | MIC (Streptococcus pyogenes [4]) | MIC (Escherichia coli [5]) | MIC (Salmonella enterica [6]) | inhibition zone (IZ) (Salmonella enterica [7]) | inhibition zone (IZ) (Escherichia coli [8]) | inhibition zone (IZ) (Staphylococcus aureus [9]) | inhibition zone (IZ) (Streptococcus pyogenes [10]) | MIC (Pseudomonas aeruginosa [11]) | inhibition zone (IZ) (Bacillus subtilis [12]) | zone of inhibition at 100 µg/mL (Nakaseomyces glabratus [18]) | zone of inhibition at 100 µg/mL (Candida albicans [19]) | zone of inhibition at 100 µg/mL (Penicillium [20]) | zone of inhibition at 100 µg/mL (Fusarium oxysporum [21]) | zone of inhibition at 100 µg/mL (Aspergillus niger [22]) | further results
O=C(N[C@H](CO)[C@H](O)c1ccc([N+](=O)[O-])cc1)C(Cl)Cl [CHLORAMPHENICOL] | 17.1 mm | 32 µg/mL (≈ 99 µM) | 32 µg/mL (≈ 99 µM) | 32 µg/mL (≈ 99 µM) | 32 µg/mL (≈ 99 µM) | 32 µg/mL (≈ 99 µM) | 25.2 mm | 20 mm | 21 mm | 22.4 mm | 32 µg/mL (≈ 99 µM) | 26.8 mm |  |  |  |  |  | 
NYSTATIN |  |  |  |  |  |  |  |  |  |  |  |  |  |  |  |  |  | inhibition zone (IZ) (Fusarium oxysporum [13]): 19.5 mm; inhibition zone (IZ) (Penicillium [14]): 24.5 mm; inhibition zone (IZ) (Nakaseomyces glabratus [15]): 29 mm; inhibition zone (IZ) (Candida albicans [16]): 29 mm; inhibition zone (IZ) (Aspergillus niger [17]): 19.5 mm
CC(=O)O[C@H]1CC[C@]2(C)[C@H]3CC[C@]4(C)[C@@H]([C@H](C)CCCC(C)C)CC[C@H]4[C@@H]3C=C3N=C(N)O[C@@]32C1 | 15 mm | 32 µg/mL (≈ 66 µM) | 128 µg/mL (≈ 264 µM) | 128 µg/mL (≈ 264 µM) | 128 µg/mL (≈ 264 µM) | 128 µg/mL (≈ 264 µM) | 13.2 mm | 14.1 mm | 12.8 mm | 12.5 mm | 64 µg/mL (≈ 132 µM) | 13.1 mm | 10.1 mm | 20.1 mm | 15.1 mm | 12.1 mm | 11.2 mm | 
CC(C)CCC[C@@H](C)[C@H]1CC[C@H]2[C@@H]3C=C4N=C(N)O[C@@]45CCCC[C@]5(C)[C@H]3CC[C@]12C | 13.5 mm | 128 µg/mL (≈ 300 µM) | 128 µg/mL (≈ 300 µM) | 256 µg/mL (≈ 600 µM) | 256 µg/mL (≈ 600 µM) | 128 µg/mL (≈ 300 µM) | 11.5 mm | 13.1 mm | 10.8 mm | 11.2 mm | 128 µg/mL (≈ 300 µM) | 12.1 mm | 9.2 mm | 19.1 mm | 14.5 mm | 10.1 mm | 10.1 mm | 
CC(C)CCC[C@@H](C)[C@H]1CC[C@H]2[C@@H]3C=C4N=C(N)O[C@@]45C[C@@H](Cl)CC[C@]5(C)[C@H]3CC[C@]12C | 16.5 mm | 64 µg/mL (≈ 139 µM) | 64 µg/mL (≈ 139 µM) | 128 µg/mL (≈ 278 µM) | 128 µg/mL (≈ 278 µM) | 64 µg/mL (≈ 139 µM) | 14.1 mm | 16.1 mm | 15.1 mm | 15.1 mm | 64 µg/mL (≈ 139 µM) | 15.2 mm | 15.2 mm | 21.5 mm | 16.2 mm | 13.1 mm | 12.5 mm | 
